The assay deals with T1, human lysozyme (Homo sapiens, UniProt P61626).
T1 construct: gene LYZ; wild type, expressed in Pichia pastoris (residues 1 to 130)
T1 sequence (P61626 19-148): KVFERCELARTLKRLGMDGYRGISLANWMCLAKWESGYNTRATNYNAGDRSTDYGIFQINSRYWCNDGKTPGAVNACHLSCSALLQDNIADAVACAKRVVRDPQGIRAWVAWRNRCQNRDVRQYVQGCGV
Kind of assay: SPR (Biacore single chain kinetics); also 1H-15N HSQC NMR titration and RDCs of the bound state. The assay is classed as binding.

From article PMC4383205, “Structure of a low-population intermediate state in the release of an enzyme product” (eLife, 2015) come the findings set out here.

As for `CC(=O)N[C@H]1[C@H](O[C@H]2[C@H](O)[C@@H](NC(C)=O)C(O)O[C@@H]2CO)O[C@H](CO)[C@@H](O[C@@H]2O[C@H](CO)[C@@H](O)[C@H](O)[C@H]2NC(C)=O)[C@@H]1O` (stereo partly shown) [triNAG, N,N′,N′′-Triacetylchitotriose], the dissociation constant (Kd) (commonly the free concentration of one partner at which half of the binding sites on the other are occupied at equilibrium, for simple one-to-one binding) was about 9 µM.
